Assays:
FH-B cells [1] = assay: Cell spreading area / cell compaction by microscopy; type: cell-based, human
Procedure: Cells were washed as before, treated with Phalloidin-iFluor 488 Reagent (abcam, ab176753) for 1 hour in 1-5% BSA in PBS, followed by Hoechst 33342 (Thermo Fisher Scientific, H3570) for 5 minutes. Mounting medium (Fisher Scientific, P10144) and cover slips were applied onto dried cells. Individually discernible cells were imaged on an Olympus Fluoview 10i. Using ImageJ, the phalloidin channel was thresholded and area and circularity values were measured and integrated into swarmplots using Python's seaborn library.
For time lapse microscopy, FH-B cells in high μ-dishes were incubated with CellBrite™ Steady Membrane stain (Biotium, 30108-T) for 30-40 minutes in the environmental chamber of a Nikon C2 Si microscope at 37° C. and 5% CO2. Treatments were added to the cells through a syringe to reach final concentrations of 4 μM FQI1 or 0.01% DMSO. Immediately thereafter, a time-lapse series was acquired by imaging every 30 seconds for 30 minutes at 20× magnification.

FH-B cells [2] = assay: MTS cell proliferation assay; type: cell-based, human; details: for GI50: Homo sapiens, FH-B cells, MTS assay, 72 hour treatment
Procedure: MTS Cell Proliferation Assay: Three thousand FH-B cells were seeded per well in a 96-well plate and incubated at 37° C. for 20 hours. Compound dilutions were prepared in DMSO and added to the cell culture media to a final DMSO concentration of 1% for a 72 hour treatment. Cell growth inhibition was assessed by measuring absorbance at 490 nm using the Promega CellTiter 96® AQueous One Solution Cell Proliferation Assay (Promega, G358C). Percent growth inhibition was determined by the ratio of the absorbance of treatment wells to the absorbance of control wells. A non-linear regression plot of the percentage of growth inhibition versus compound concentration was prepared using GraphPad Prism software, using settings for the curves of variable slope and four parameters. The relative GI50 value was determined from the curve as the concentration of drug that provokes a response halfway between the top and bottom plateaus of the curve.

LSF = target: T1, LSF (Homo sapiens, UniProt Q12800); assay: Cellular thermal shift assay (CETSA) in Huh7 cells; type: binding; details: 50 μM, three hours, vs DMSO
T1 construct: Representative immunoblots of soluble LSF after treatment with FQI2-34 versus DMSO; endogenous in cells; host or cells: Huh7
T1 sequence (Q12800 1-502): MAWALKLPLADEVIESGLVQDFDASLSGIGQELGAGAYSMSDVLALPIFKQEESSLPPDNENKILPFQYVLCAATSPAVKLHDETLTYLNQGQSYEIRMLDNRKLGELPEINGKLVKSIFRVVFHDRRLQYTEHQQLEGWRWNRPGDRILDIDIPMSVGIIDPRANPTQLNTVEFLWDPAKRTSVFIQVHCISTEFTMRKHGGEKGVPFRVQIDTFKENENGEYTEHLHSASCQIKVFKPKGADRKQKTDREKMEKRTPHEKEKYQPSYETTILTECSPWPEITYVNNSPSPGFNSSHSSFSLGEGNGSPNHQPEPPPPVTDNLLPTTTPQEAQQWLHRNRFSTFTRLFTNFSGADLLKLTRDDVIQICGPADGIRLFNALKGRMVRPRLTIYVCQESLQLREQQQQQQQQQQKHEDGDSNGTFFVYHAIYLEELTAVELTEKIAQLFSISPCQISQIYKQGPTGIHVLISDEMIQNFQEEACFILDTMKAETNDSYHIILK
Procedure: Cellular Thermal Shift Assay (CETSA): Huh7 cells obtained from JCRB (Japanese Cancer Resources Bank) were cultured in DMEM medium (Corning) supplemented with 10% fetal bovine serum (Gibco). The cells were cultured at 37° C. in 5% CO2. Approximately 9×10^5 Huh7 cells were plated per 10 cm plate. After 20 hours, cells were treated for three hours with fresh media containing 50 μM FQI1, 50 μM FQI2-34, or 0.1% DMSO (FQI1 control) or 0.5% DMSO (FQI2-34 control). Subsequently, the cells were washed with PBS (137 mM NaCl, 2.7 mM KCl, 10 mM Na2HPO4, 2 mM KH2PO4, pH 7.2) supplemented with their respective treatments (FQI1, FQI2-34, or vehicle) and scraped from the dish in the presence of 5 mL of PBS supplemented with 1 mM Pefabloc (Sigma-Aldrich, 76307) plus the respective treatment. Pelleted cells were resuspended in 500 μL of PBS buffer with 1 mM Pefabloc plus the respective treatment. Aliquots of 50 μL of cell suspension from each treatment sample were incubated separately at the indicated temperatures for 3 minutes in a thermal cycler (Bio-rad, T100 Thermocyler), then cooled at the room temperature for 3 minutes. Lysates were prepared by four rounds of snap freezing and thawing. […] Films were scanned and band intensities were quantified by densitometry with Image J; a non-parametric t-test was used to determine statistical significance.

SMILES: CCOc1ccccc1C1CC(=O)Nc2cc3c(cc21)OCO3 (stereo not drawn) [FQI1, 8-(2-ethoxyphenyl)-7,8-dihydro-[1,3]dioxolo[4,5-g]quinolin-6(5H)-one]
- effect of FQI1 on cell spreading area after taxol pretreatment (FH-B cells [1]; 1 μM taxol 30 minutes, then 4 μM FQI1): no detectable effect
- reduction in cell spreading area (FH-B cells [1]; 4 μM FQI1, 30-60 minutes, vs vehicle): 1.7 fold
- reduction in cell spreading area (FH-B cells [1]; Y-27632 pretreatment 30 minutes, then 4 μM FQI1 30 minutes): 1.2 fold
- decrease in median cell spreading area (FH-B cells [1]; vehicle pretreatment 30 minutes, then 4 μM FQI1 10 or 30 minutes): 1.5 fold
- reduction in cell spreading area (FH-B cells [1]; vehicle pretreatment (control group of Y-27632 experiment), 4 μM FQI1 30 minutes): 1.6 fold
- GI50 (FH-B cells [2]): 2300 nM
- stability of LSF to thermal denaturation (LSF): enhanced the stability of LSF to thermal denaturation

SMILES: CCOc1cc(N(C)C)ccc1-c1cc(=O)[nH]c2cc3c(cc12)OCO3 [FQI2-34, 8-(4-(dimethylamino)-2-ethoxyphenyl)-[1,3]dioxolo[4,5-g]quinolin-6(5H)-one]
- decrease in cell spreading (FH-B cells [1]; 200 nM FQI2-34, 30 minutes, vs vehicle): 2.1 fold
- fold lower concentration than the effective concentrations for FQI1 (cell compaction) (FH-B cells [1]; 200 nM FQI2-34 vs 4 μM FQI1): 20 fold
- fold higher efficacy than FQI1 in inhibiting proliferation of FH-B cells (FH-B cells [2]): 17 fold
- GI50 (FH-B cells [2]): 140 nM
- stability of LSF to thermal denaturation (LSF): enhanced the stability of LSF to thermal denaturation

Source: US11458132B2, “Quinolin-2(1H)-one inhibitors of Late SV40 Factor” (TRUSTEES OF BOSTON UNIVERSITY, priority 2020, dated 2022)
